# Source: ChEMBL document CHEMBL5523727, “Discovery of KT-413, a Targeted Protein Degrader of IRAK4 and IMiD Substrates Targeting MYD88 Mutant Diffuse Large B-Cell Lymphoma” (J Med Chem, 2024)
# Active and inactive are the calls of the source. No cut-off for these calls is given here.
# How the values were obtained:
# OCI-Ly10 [1] = assay: […] of […] expression in human OCI-Ly10 cells at 60 nM measured after 2 to 8 hrs by TMT based quantitative proteomics analysis; assay type: functional, cell-based; conditions: time 2-8 hrs
# OCI-Ly10 [2] = assay: Effect on GSPT1 expression in human OCI-Ly10 at 60 nM measured after 2 to 8 hrs by TMT based quantitative proteomics analysis; assay type: functional, cell-based; conditions: time 2-8 hrs
# [3] = Oral bioavailability in rat at 10 mg/kg by LC-MS/MS analysis; assay type: ADME, organism-based; conditions: in vivo
# [4] = Oral bioavailability in dog at 2.1 mg/kg by LC-MS/MS analysis; assay type: ADME, organism-based, Canis lupus familiaris; conditions: in vivo
# [5] = Metabolic stability in Non human primate liver microsomes assessed as intrinsic clearance; assay type: ADME, Microsome; conditions: primates, read-out: CLH
# OCI-Ly10 [6] = assay: Antitumor activity against human OCI-LY10 cells xenografted in CB-17.SCID mouse model assessed as tumor growth regression at 10 to 30 mg/kg, po QD dosed measured after 38 days relative to control; assay type: functional; conditions: dose 10-30 mg/kg, time 38 day
# [7] = target: T1, Protein cereblon/Zinc finger protein Aiolos (Homo sapiens, UniProt Q96SW2+Q9UKT9); assay: PROTAC activity at CRBN/Aiolos in human OCI-Ly10 cells assessed as induction of Aiolos degradation measured after 24 hrs by MSD assay; assay type: cell-based
# Target sequence in this assay (Q96SW2 whole entry): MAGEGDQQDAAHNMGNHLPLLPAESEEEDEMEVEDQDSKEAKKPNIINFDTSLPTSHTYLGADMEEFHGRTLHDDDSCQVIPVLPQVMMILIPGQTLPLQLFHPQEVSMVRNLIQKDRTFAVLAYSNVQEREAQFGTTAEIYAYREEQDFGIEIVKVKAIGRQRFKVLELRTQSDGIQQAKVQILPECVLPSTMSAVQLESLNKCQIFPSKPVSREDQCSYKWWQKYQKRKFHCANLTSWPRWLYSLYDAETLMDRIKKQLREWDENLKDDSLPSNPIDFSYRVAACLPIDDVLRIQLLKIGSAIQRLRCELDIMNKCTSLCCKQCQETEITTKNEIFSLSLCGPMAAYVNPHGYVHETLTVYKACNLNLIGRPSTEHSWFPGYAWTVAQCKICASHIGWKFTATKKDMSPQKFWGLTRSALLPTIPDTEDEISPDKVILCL
# Target sequence in this assay (Q9UKT9 whole entry): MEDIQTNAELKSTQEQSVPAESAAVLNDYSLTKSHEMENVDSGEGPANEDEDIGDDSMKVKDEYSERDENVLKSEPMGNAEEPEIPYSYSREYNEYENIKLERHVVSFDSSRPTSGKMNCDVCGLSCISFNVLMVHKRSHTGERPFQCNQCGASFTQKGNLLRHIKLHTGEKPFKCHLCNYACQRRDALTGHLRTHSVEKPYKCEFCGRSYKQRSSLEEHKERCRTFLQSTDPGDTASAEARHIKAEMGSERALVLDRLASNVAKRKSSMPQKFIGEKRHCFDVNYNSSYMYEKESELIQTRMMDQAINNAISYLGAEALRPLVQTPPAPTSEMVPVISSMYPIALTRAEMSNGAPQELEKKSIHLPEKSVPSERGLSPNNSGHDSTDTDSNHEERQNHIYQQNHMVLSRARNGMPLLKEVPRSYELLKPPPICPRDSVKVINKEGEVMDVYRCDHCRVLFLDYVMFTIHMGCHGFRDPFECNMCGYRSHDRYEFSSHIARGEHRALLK
# [8] = Volume of distribution at steady state in dog at 0.2 mg/kg, iv by LC-MS/MS analysis; assay type: ADME, organism-based, Canis lupus familiaris; conditions: in vivo, read-out: Vdss
# OCI-Ly10 [9] = assay: Antitumor activity in human patient derived OCI-LY10 cells xenografted in NPG mouse bearing MYD88-mutated DLBCL tumor containing a CD79 co-mutation model assessed as tumor growth regression at 20 mg/kg, po QD dosed measured after 3 to 5 days relative to control; assay type: functional; conditions: time 3-5 day
# [10] = Metabolic stability in dog hepatocyte assessed as intrinsic clearance measured per million cells; assay type: ADME, cell-based, Canis lupus familiaris; conditions: hepatocytes, read-out: CLH
# PBMC [11] = assay: Downregulation of IRAK4 expression in human PBMC cells at 100 nM measured after 24 hrs by TMT based quantitative proteomics analysis; assay type: functional, cell-based
# OCI-Ly10 [12] = assay: Downregulation of LPXN expression in human OCI-Ly10 cells at 60 nM measured after 2 to 8 hrs by TMT based quantitative proteomics analysis; assay type: functional, cell-based; conditions: time 2-8 hrs
# [13] = Metabolic stability in rat hepatocyte assessed as intrinsic clearance measured per million cells; assay type: ADME, cell-based; conditions: hepatocytes, read-out: CLH
# PBMC [14] = assay: Effect on IKZF3 expression in human PBMC cells at 100 nM measured after 24 hrs by TMT based quantitative proteomics analysis; assay type: functional, cell-based
# [15] = Passive permeability of the compound in wild type MDCK cells across apical to basolateral side at 1 uM measured for 120 mins by LC-MS/MS analysis; assay type: ADME, cell-based, Canis lupus familiaris; conditions: dog, read-out: permeability
# [16] = target: T2, Protein cereblon/Interleukin-1 receptor-associated kinase 4 (Homo sapiens, UniProt Q9NWZ3+Q96SW2); assay: PROTAC activity at CRBN/IRAK4 in human OCI-Ly10 cells assessed as maximum degradation at 41 nM measured after 24 hrs; assay type: cell-based
# Target sequence in this assay (Q96SW2 whole entry, looked up): as the sequence (Q96SW2 whole entry) above
# Target sequence in this assay (Q9NWZ3 whole entry, looked up): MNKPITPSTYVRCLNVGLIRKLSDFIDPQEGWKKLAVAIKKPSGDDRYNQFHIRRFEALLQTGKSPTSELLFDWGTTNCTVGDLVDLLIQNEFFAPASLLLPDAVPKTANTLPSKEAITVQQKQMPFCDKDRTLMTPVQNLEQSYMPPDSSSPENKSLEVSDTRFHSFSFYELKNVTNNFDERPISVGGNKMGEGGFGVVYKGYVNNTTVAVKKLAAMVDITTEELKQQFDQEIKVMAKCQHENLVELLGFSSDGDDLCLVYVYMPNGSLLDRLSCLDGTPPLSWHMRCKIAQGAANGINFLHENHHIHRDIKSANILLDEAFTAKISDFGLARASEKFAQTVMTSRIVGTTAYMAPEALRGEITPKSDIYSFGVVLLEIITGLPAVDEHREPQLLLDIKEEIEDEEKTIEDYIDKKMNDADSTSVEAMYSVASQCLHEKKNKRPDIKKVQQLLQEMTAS
# [17] = Volume of distribution at steady state in mouse at 2 mg/kg, iv by LC-MS/MS analysis; assay type: ADME, organism-based; conditions: in vivo, read-out: Vdss
# OCI-Ly10 [18] = assay: Downregulation of […] expression in human OCI-Ly10 cells at 60 nM measured after 2 to 8 hrs by TMT based quantitative proteomics analysis; assay type: functional, cell-based; conditions: time 2-8 hrs
# [19] = AUC in rat at 10 mg/kg, po by LC-MS/MS analysis; assay type: ADME, organism-based; conditions: in vivo, read-out: AUC
# [20] = Half life in rat at 2 mg/kg, iv by LC-MS/MS analysis; assay type: ADME, organism-based; conditions: in vivo
# OCI-Ly10 [21] = assay: Downregulation of FGD2 expression in human OCI-Ly10 cells at 60 nM measured after 2 to 8 hrs by TMT based quantitative proteomics analysis; assay type: functional, cell-based; conditions: time 2-8 hrs
# [22] = Clearance in mouse at 2 mg/kg, iv by LC-MS/MS analysis; assay type: ADME, organism-based; conditions: in vivo
# Cereblon/Ikaros [23] = target: T3, Cereblon/Ikaros (Homo sapiens, UniProt Q96SW2+Q13422); assay: PROTAC activity at CRBN/Ikaros in human OCI-Ly10 cells assessed as induction of Ikaros degradation measured after 24 hrs by MSD assay; assay type: cell-based
# [24] = Volume of distribution at steady state in rat at 2 mg/kg, iv by LC-MS/MS analysis; assay type: ADME, organism-based; conditions: in vivo, read-out: Vdss
# PBMC [25] = assay: Effect on WIZ expression in human PBMC cells at 100 nM measured after 24 hrs by TMT based quantitative proteomics analysis; assay type: functional, cell-based
# PBMC [26] = assay: Effect on ZFP276 expression in human PBMC cells at 100 nM measured after 24 hrs by TMT based quantitative proteomics analysis; assay type: functional, cell-based
# [27] = Metabolic stability in human hepatocyte assessed as intrinsic clearance measured per million cells; assay type: ADME, cell-based; conditions: hepatocytes, read-out: CLH
# [28] = AUC in Non human primate at 2.1 mg/kg, po by LC-MS/MS analysis; assay type: ADME, organism-based; conditions: primates, in vivo
# PBMC [29] = assay: Downregulation of FGD2 expression in human PBMC cells at 100 nM measured after 24 hrs by TMT based quantitative proteomics analysis; assay type: functional, cell-based
# [30] = target: T2, Protein cereblon/Interleukin-1 receptor-associated kinase 4; assay: PROTAC activity at CRBN/IRAK4 in human OCI-Ly10 cells assessed as induction of IRAK4 degradation measured after 24 hrs by MSD assay; assay type: cell-based
# Target sequence in this assay (Q9NWZ3 whole entry): as the sequence (Q9NWZ3 whole entry, looked up) above
# Target sequence in this assay (Q96SW2 whole entry): as the sequence (Q96SW2 whole entry) above
# [31] = Oral bioavailability in Non human primate at 2.1 mg/kg by LC-MS/MS analysis; assay type: ADME, organism-based; conditions: primates, in vivo
# OCI-Ly10 [32] = assay: […] of IKZF3 expression in human OCI-Ly10 cells at 60 nM measured after 2 to 8 hrs by TMT based quantitative proteomics analysis; assay type: functional, cell-based; conditions: time 2-8 hrs
# [33] = target: T1, Protein cereblon/Zinc finger protein Aiolos; assay: PROTAC activity at CRBN/Aiolos in human OCI-Ly10 cells assessed as maximum degradation at 41 nM measured within 2 hrs; assay type: cell-based
# Target sequence in this assay (Q96SW2 whole entry, looked up): as the sequence (Q96SW2 whole entry) above
# Target sequence in this assay (Q9UKT9 whole entry, looked up): as the sequence (Q9UKT9 whole entry) above
# OCI-Ly10 [34] = assay: Antiproliferative activity against human OCI-Ly10 cells measured after 4 days by CellTiter-Glo Luminescent Cell Viability Assay; assay type: functional, cell-based; conditions: Homo sapiens, OCI-Ly10, 96 h
# PBMC [35] = assay: Effect on ZFP91 expression in human PBMC cells at 100 nM measured after 24 hrs by TMT based quantitative proteomics analysis; assay type: functional, cell-based
# OCI-Ly10 [36] = assay: Antitumor activity against human OCI-LY10 cells xenografted in CB-17.SCID mouse model assessed as tumor growth regression at 3 mg/kg, po QD dosed measured after 38 days; assay type: functional, organism-based; conditions: time 38.0 day
# [37] = Clearance in rat at 2 mg/kg, iv by LC-MS/MS analysis; assay type: ADME, organism-based; conditions: in vivo
# [38] = Half life in dog at 0.2 mg/kg, iv by LC-MS/MS analysis; assay type: ADME, organism-based, Canis lupus familiaris; conditions: in vivo
# [39] = Oral bioavailability in mouse at 10 mg/kg by LC-MS/MS analysis; assay type: ADME, organism-based; conditions: in vivo
# [40] = AUC in mouse at 10 mg/kg, po by LC-MS/MS analysis; assay type: ADME, organism-based; conditions: in vivo
# [41] = Clearance in Non human primate at 0.2 mg/kg, iv by LC-MS/MS analysis; assay type: ADME, organism-based; conditions: primates, in vivo
# [42] = Metabolic stability in Non human primate hepatocyte assessed as intrinsic clearance measured per million cells; assay type: ADME, cell-based; conditions: primates, hepatocytes; read-out: CLH
# [43] = Half life in mouse at 2 mg/kg, iv by LC-MS/MS analysis; assay type: ADME, organism-based; conditions: in vivo
# [44] = Metabolic stability in dog liver microsomes assessed as intrinsic clearance; assay type: ADME, Canis lupus familiaris, Microsome; conditions: read-out: CLH
# [45] = Metabolic stability in mouse liver microsomes assessed as intrinsic clearance; assay type: ADME, Microsome; conditions: read-out: CLH
# [46] = Half life in Non human primate at 0.2 mg/kg, iv by LC-MS/MS analysis; assay type: ADME, organism-based; conditions: primates, in vivo
# [47] = Clearance in dog at 0.2 mg/kg, iv by LC-MS/MS analysis; assay type: ADME, organism-based, Canis lupus familiaris; conditions: in vivo
# PBMC [48] = assay: Downregulation of LPXN expression in human PBMC cells at 100 nM measured after 24 hrs by TMT based quantitative proteomics analysis; assay type: functional, cell-based
# [49] = AUC in dog at 2.1 mg/kg, po by LC-MS/MS analysis; assay type: ADME, organism-based, Canis lupus familiaris; conditions: in vivo
# PBMC [50] = assay: Effect on IKZF1 expression in human PBMC cells at 100 nM measured after 24 hrs by TMT based quantitative proteomics analysis; assay type: functional, cell-based
# [51] = Volume of distribution at steady state in Non human primate at 0.2 mg/kg, iv by LC-MS/MS analysis; assay type: ADME, organism-based; conditions: primates, in vivo, read-out: Vdss
# Cereblon/Ikaros [52] = target: T3, Cereblon/Ikaros; assay: PROTAC activity at CRBN/Ikaros in human OCI-Ly10 cells assessed as maximum degradation at 41 nM measured within 2 hrs; assay type: cell-based
# PBMC [53] = assay: Effect on GSPT1 expression in human PBMC at 100 nM measured after 24 hrs by TMT based quantitative proteomics analysis; assay type: functional, cell-based
# T3 sequence (Q96SW2 whole entry): as the sequence (Q96SW2 whole entry) above
# T3 sequence (Q13422 whole entry): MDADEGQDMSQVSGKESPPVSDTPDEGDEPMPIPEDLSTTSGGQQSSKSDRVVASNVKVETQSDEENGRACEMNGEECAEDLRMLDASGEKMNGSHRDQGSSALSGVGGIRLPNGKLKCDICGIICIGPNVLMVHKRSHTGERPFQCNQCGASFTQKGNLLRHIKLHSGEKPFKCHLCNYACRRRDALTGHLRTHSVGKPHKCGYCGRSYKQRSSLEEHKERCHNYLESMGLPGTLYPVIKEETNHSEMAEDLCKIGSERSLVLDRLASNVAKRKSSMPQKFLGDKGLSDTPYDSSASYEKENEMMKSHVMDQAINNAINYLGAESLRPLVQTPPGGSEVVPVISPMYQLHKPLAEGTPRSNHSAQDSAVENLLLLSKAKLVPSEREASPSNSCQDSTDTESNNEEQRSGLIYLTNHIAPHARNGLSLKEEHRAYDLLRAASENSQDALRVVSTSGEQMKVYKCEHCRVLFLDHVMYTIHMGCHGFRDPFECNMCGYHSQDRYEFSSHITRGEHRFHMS
smiles,measurement,setting,value
CC(C)(O)c1cc2nc([C@H]3CC[C@H](CN4CC5(CC(CCNc6cccc7c6C(=O)N(C6CCC(=O)NC6=O)C7=O)C5)C4)CC3)sc2cc1NC(=O)c1cccc(C(F)(F)F)n1 (stereo partly drawn) [ZOMIRADOMIDE],Activity,OCI-Ly10 [1],Active
same,Activity,OCI-Ly10 [2],inactive
same,bioavailability,[3],15%
same,bioavailability,[4],21%
same,microsomal CLint,[5],8.6 µL/min/mg
same,Activity,OCI-Ly10 [6],100%
same,DC50,[7],1 nM
same,Vd,[8],29 L/kg
same,Activity,OCI-Ly10 [9],100%
same,hepatocyte CLint,[10],2.3 µL/min/1e6 cells
same,Activity,PBMC [11],Active
same,Activity,OCI-Ly10 [12],Active
same,hepatocyte CLint,[13],0.8 µL/min/1e6 cells
same,Activity,PBMC [14],Active
same,"Papp A→B at 2 h, 1 µM",[15],1.3 ×10⁻⁶ cm/s
same,Activity,[16],Active
same,Vd,[17],7.5 L/kg
same,Activity,OCI-Ly10 [18],Active
same,AUC,[19],2.7 µM·h
same,half-life,[20],17 h
same,Activity,OCI-Ly10 [21],Active
same,clearance,[22],11 mL/min/kg
same,DC50,Cereblon/Ikaros [23],1 nM
same,Vd,[24],15 L/kg
same,Activity,PBMC [25],Active
same,Activity,PBMC [26],Active
same,hepatocyte CLint,[27],3.5 µL/min/1e6 cells
same,AUC,[28],3.6 µM·h
same,Activity,PBMC [29],Active
same,DC50,[30],6 nM
same,bioavailability,[31],42%
same,Activity,OCI-Ly10 [32],Active
same,Activity,[33],Active
same,IC50,OCI-Ly10 [34],11 nM
same,Activity,PBMC [35],Active
same,Activity,OCI-Ly10 [36],Active
same,clearance,[37],9.1 mL/min/kg
same,half-life,[38],28 h
same,bioavailability,[39],19%
same,AUC,[40],2.8 µM·h
same,clearance,[41],4.5 mL/min/kg
same,hepatocyte CLint,[42],2.7 µL/min/1e6 cells
same,half-life,[43],8.6 h
same,microsomal CLint,[44],4.2 µL/min/mg
same,microsomal CLint,[45],4 µL/min/mg
same,half-life,[46],16.4 h
same,clearance,[47],14 mL/min/kg
same,Activity,PBMC [48],Active
same,AUC,[49],0.46 µM·h
same,Activity,PBMC [50],Active
same,Vd,[51],5.8 L/kg
same,Activity,Cereblon/Ikaros [52],Active
same,Activity,PBMC [53],inactive
